Experimental data: patent US7118895B2, “Process for producing aglycon by using diglycosidase and flavor-improved food containing the aglycon and converting agent to be used in the process” (Amano Enzyme Inc., priority 2000, dated 2006)

Assay: Effective amount of Amylase AD “Amano” 1 accelerating the conversion into aglycon isoflavones by diglycosidase
Format: biochemical
Details: Amylase AD “Amano” 1 at 0.005% (w/v) with diglycosidase 0.1% (w/v); roasted soy flour 30% (w/v), pH 5.0, 50° C., 3 hours
Procedure: Roasted soy flour (manufactured by Fuji Shokuhin K.K.) was suspended into 0.1 M sodium acetate adjusted to pH 3.15, the substrate concentration was adjusted to 30% (w/v), and the pH of the solution to 5.0. The suspension was pre-incubated at 50° C. for 1 hour, whereby the temperature of the suspension was elevated to 50° C. To the suspension were added diglycosidase so as to be a final concentration of 0.1% (w/v) (0.3 AU) and Amylase AD “Amano” 1 (manufactured by Amano Enzyme Innc.) so as to be 0.1, 0.05, 0.01, 0.005, and 0.0001% (w/v). The whole was reacted at 50° C. for 3 hours and the change of isoflavone composition was analyzed by HPLC.

Compound | increase of isolated aglycon versus diglycosidase alone [fold]
O=c1c(-c2ccc(O)cc2)coc2cc(O)ccc12 [daidzein] | 1.2
O=c1c(-c2ccc(O)cc2)coc2cc(O)cc(O)c12 [genistein] | 1.20
COc1cc2c(=O)c(-c3ccc(O)cc3)coc2cc1O [glycitein] | 1.23
